How the values were obtained:
[1] = tested on: SARS-CoV-2; assay: Inhibition of SARS-CoV-2 replication in Vero E6 cells (viral NP immunostaining, percent infection); details: for IC50: read-out: IC50 of inhibition of the replication of SARS-CoV-2, MOI 0.025, compound added 2 h before infection, 48 h incubation, NP immunostaining
[2] = tested on: Vero E6 cells; details: uninfected VeroE6 cells, MTT assay, same compound dilutions as viral replication assay

SMILES | IC50 [1] [nM] | effect on viral replication ([1]; SARS-CoV-2, negative control, data not shown) | effect on the viability of Vero E6 cells [2] | fold more effective than Remdesivir (SARS-CoV-2 replication IC50) ([1]; ratio of IC50 values versus Remdesivir)
CCN(CCO)CCCC(C)Nc1ccnc2cc(Cl)ccc12 (stereo not drawn) [Hydroxy-Chloroquine] | 733 |  |  | 
CN1CCN(c2ccc(Nc3ncc4cc(C#N)c(=O)n(C5CCCC5)c4n3)cc2)CC1 [ON123300] |  | no effect |  | 
CCC(CC)COC(=O)[C@H](C)N[P@](=O)(OC[C@H]1O[C@@](C#N)(c2ccc3c(N)ncnn23)[C@H](O)[C@@H]1O)Oc1ccccc1 [Remdesivir] | 826 |  |  | 
COc1cc(OC)c(/C=C/S(=O)(=O)Cc2ccc(OC)c(NCC(=O)O)c2)c(OC)c1 [Rigosertib] | 16 |  | little or no effect | approximately 50 fold
